Source: patent US9771353B2, “Kinase inhibitors based upon N-alkyl pyrazoles” (RESPIVERT LIMITED, priority 2013, dated 2017)

Columns and labels:
[1] = tested on: TNBS-induced colitis in mice; assay: TNBS-induced colitis in mice, in vivo assay (iv), conducted over 2 days; details: for Ulcer grade: TNBS + Vehicle 4.3 ± 0.2; for LP inflammation: TNBS + Vehicle 4.7 ± 0.1
Procedure: Non-fasted, 10-12 week old, male BDF1 mice are dosed by oral gavage twice daily with either vehicle (5 mL/kg), reference item (Budesonide 2.5 mg/kg) or test compound (1 or 5 mg/kg) one day before (Day −1) stimulation of the inflammatory response by treatment with 2,4,6-trinitrobenzenesulphonic acid (TNBS) (15 mg/mL in 50% ethanol/50% saline). On Day 0 of the study TNBS (200 μL) is administered intra-colonically via a plastic catheter with BID dosing of the vehicle, reference or test compound continuing for 2 or 4 days. During the study animals are weighed every day and stool observations are made and recorded as a score, based on stool consistency. At the time of sacrifice on Day 2 (or Day 4) the large intestine is removed and the length and weight recorded. Sections of the colon are taken for histopathology scoring to determine disease severity.

[2] = tested on: HT29 cells; assay: IL-1β-induced IL-8 release in HT29 cells, assay (d); format: cell-based; details: Homo sapiens, HT-29, IL-1β-stimulated HT29 cells, read-out: IC50 Values for Inhibition of Cytokine Release, HT29 cells IL-8
Procedure: HT29 cells, a human colon adenocarcinoma cell line, are plated in a 96 well plate (24 hrs) and pre-treated with compounds at the desired concentration for 2 hours before addition of 5 ng/mL of IL-1β (Abcam) for 24 hours. Supernatants are harvested for IL-8 quantification by Sandwich ELISA (Duo-set, R&D System). The IC50 is determined from the dose response curve.

[3] = biological target: Syk (Homo sapiens (Human), UniProt P43405); assay: Syk enzyme inhibition (FRET, Z-LYTE); format: biochemical
Procedure: (§1) The enzyme inhibitory activities of compounds disclosed herein are determined by FRET using synthetic peptides labelled with both donor and acceptor fluorophores (Z-LYTE, Invitrogen Ltd., Paisley, UK).
(§2) The inhibitory activities of compounds of the invention against c-Src and Syk enzymes (Invitrogen), are evaluated in a similar fashion to that described hereinabove. The relevant enzyme (3000 ng/mL or 2000 ng/mL respectively, 2.5 μL) is incubated with the test compound (either 4 μg/mL, 0.4 μg/mL, 0.04 μg/mL, or 0.004 μg/mL, 2.5 μL each) for 2 hr at RT. The FRET peptides (8 μM, 2.5 μL), and appropriate ATP solutions (2.5 μL, 800 μM for c-Src, and 60 μM ATP for Syk) are then added to the enzymes/compound mixtures and incubated for 1 hr. Development reagent (protease, 5 μL) is added for 1 hr prior to detection in a fluorescence microplate reader (Varioskan® Flash, ThermoFisher Scientific).
(§3) In all cases, the site-specific protease cleaves non-phosphorylated peptide only and eliminates the FRET signal. Phosphorylation levels of each reaction are calculated using the ratio of coumarin emission (donor) over fluorescein emission (acceptor), for which high ratios indicate high phosphorylation and low ratios indicate low phosphorylation levels.

[4] = tested on: intestinal mucosa biopsies from UC patients; assay: Human biopsy assay (l): cytokine release from intestinal mucosa biopsies of ulcerative colitis patients; format: cell-based; details: 1 μg/mL, 24 hours
Procedure: Intestinal mucosa biopsies are obtained from the inflamed regions of the colon of IBD patients. The biopsy material is cut into small pieces (2-3 mm) and placed on steel grids in an organ culture chamber at 37° C. in a 5% CO2/95% O2 atmosphere in serum-free media. DMSO control or test compounds at the desired concentration are added to the tissue and incubated for 24 hr in the organ culture chamber. The supernatant is harvested for determination of IL-6, IL-8, IL-1β and TNFα levels by R&D ELISA. Percentage inhibition of cytokine release by the test compounds is calculated relative to the cytokine release determined for the DMSO control (100%).

[5] = biological target: p38 MAPKα (Homo sapiens (Human), UniProt Q16539); assay: p38 MAPKα enzyme inhibition (FRET, Z-LYTE), Method 2; format: biochemical
[6] = biological target: c-Src (Homo sapiens (Human), UniProt P12931); assay: c-Src enzyme inhibition (FRET, Z-LYTE); format: biochemical
Procedure: as §1
as §2, with “The” for “The inhibitory activities of compounds of the invention against c-Src and Syk enzymes (Invitrogen), are evaluated in a similar fashion to that described hereinabove. The”
as §3

[7] = UC patient biopsies, DMSO control = 100%

p38 MAPKα, sequence (Q16539 whole entry): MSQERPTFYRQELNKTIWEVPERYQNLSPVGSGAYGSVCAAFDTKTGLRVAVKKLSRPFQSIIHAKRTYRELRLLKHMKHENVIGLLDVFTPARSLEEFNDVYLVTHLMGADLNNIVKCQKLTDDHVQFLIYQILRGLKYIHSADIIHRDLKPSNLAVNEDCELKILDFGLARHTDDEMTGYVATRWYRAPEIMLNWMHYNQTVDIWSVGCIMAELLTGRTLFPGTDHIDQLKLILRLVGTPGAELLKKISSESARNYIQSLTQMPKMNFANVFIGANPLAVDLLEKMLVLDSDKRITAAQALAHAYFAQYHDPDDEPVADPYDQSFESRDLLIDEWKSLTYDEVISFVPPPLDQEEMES
c-Src, sequence (P12931 whole entry, looked up): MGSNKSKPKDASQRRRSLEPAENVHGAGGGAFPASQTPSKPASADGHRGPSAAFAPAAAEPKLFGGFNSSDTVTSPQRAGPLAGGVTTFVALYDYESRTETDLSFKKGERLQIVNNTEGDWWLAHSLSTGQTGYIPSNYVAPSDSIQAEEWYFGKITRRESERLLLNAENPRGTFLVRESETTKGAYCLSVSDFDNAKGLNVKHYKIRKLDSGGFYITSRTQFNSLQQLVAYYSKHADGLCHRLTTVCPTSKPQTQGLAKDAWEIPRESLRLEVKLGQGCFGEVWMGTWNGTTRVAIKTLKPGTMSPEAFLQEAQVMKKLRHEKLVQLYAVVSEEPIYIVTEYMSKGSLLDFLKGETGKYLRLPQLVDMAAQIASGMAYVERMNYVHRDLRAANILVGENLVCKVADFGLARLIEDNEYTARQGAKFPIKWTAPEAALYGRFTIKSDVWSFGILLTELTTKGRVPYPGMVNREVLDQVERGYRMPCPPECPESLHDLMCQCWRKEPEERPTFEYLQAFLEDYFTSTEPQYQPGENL

IC50 [2] [nM] | IC50 [3] [nM] | IC50 [5] [nM] | IC50 [6] [nM] | SMILES | Ulcer grade ([1]; 1 mg/kg oral BID, mice, 2 days) | LP inflammation ([1]; 1 mg/kg oral BID, mice, 2 days) | Ulcer grade ([1]; 5 mg/kg oral BID, mice, 2 days) | LP inflammation ([1]; 5 mg/kg oral BID, mice, 2 days) | inflammatory cell infiltrate in the reticular and laminar propria zone ([1]; TNBS colitis, mice) | activity in in vivo model of colonic inflammation (histopathology analysis) ([1]; TNBS colitis, mice, 2 days) | ulcer grade and epithelial repair compared to the vehicle control ([1]; dosed orally at either 1 or 5 mg/kg) | IL-1β release [4, 7] [%] | IL-6 release [4, 7] [%] | IL-8 release [4, 7] [%] | cytokine (IL-1β, IL-6 and IL-8) release compared to the DMSO control ([4]; biopsies from ulcerative colitis patients)
33.4 | 149 |  |  | C#Cc1cc(Nc2nccc(Oc3ccc(NC(=O)Nc4cc(C(C)(C)C)nn4C)c4ccccc34)n2)cc(C(=O)NCCN2CCOCC2)c1 [Example 1, 3-((4-((4-(3-(3-(tert-Butyl)-1-methyl-1H-pyrazol-5-yl)ureido)naphthalen-1-yl)oxy)pyrimidin-2-yl)amino)-5-ethynyl-N-(2-morpholinoethyl)benzamide] | 3.3 ± 0.5 | 4.2 ± 0.2 | 3.2 ± 0.5 | 2.4 ± 0.3 | marked reduction | significant activity | marked improvements | 3 ± 2 | 8 ± 8 | 2 ± 2 | significantly inhibited
16.6 | 543 | 10 | 5 | COCCOCCOCCOc1cc(Nc2nccc(Oc3ccc(NC(=O)Nc4cc(C(C)(C)C)nn4C)c4ccccc34)n2)cc(OC)c1 [Example 2, 1-(3-(tert-Butyl)-1-methyl-1H-pyrazol-5-yl)-3-(4-((2-((3-methoxy-5-(2-(2-(2-methoxy-ethoxy)ethoxy)ethoxy)phenyl)amino)pyrimidin-4-yl)oxy)naphthalen-1-yl)urea] |  |  |  |  |  |  |  |  |  |  | 
